One block for each compound: values may come before it.
Tests used:
NCI-H460 = test: Synergistic interaction with DHA, combination index (Chou-Talalay, SRB); format: cell-based; conditions: drug in combination with DHA (1.0-20 μM), DHA 2 h before, drug 72 h
Method: (§1) Tumour cells were treated for 2 h with DHA prior to exposure to further chemotherapeutic agents for 72 h. Cell survival was then evaluated through sulphorodamine B test. Data gathered from the various combination experiments were analyzed using Calcusyn software (Biosoft, Ferguson, Mo.) through the elaboration of isobolograms to determine if the combinations of DHA and the various chemotherapeutic agents were additive, synergistic or antagonistic.

[1] = tested on: HCT116 colon cancer cells; test: In vivo antitumour activity, s.c. xenograft in CD1 nude mice; conditions: DHA 200 mg/kg p.o., AZD2281 100 mg/kg i.p., qdx5/wx4w; for antitumor effect when given singularly / tolerability (body weight loss during the treatment): HCT116 xenograft mice, ABT-888 50 mg/kg; for BWL %: body weight loss; for BWL % / TVI % / TV ± SE: HCT116 xenograft, CD1 nude mice, ABT-888 50 mg/kg i.p.; for TVI %: tumour volume inhibition; for TV ± SE: tumour volume, evaluated at about 500 mm^3
Method: HCT116 colon cancer cells were inoculated subcutaneously (s.c.) in the right flank of CD1 nude mice (5×10^6/0.1 ml of Medium 199). Treatments started three days after tumour injection. Mice were subdivided (8 mice/group) in the following experimental groups:
(§2) a) Vehicle (DMSO 10%) 10 ml/kg, i.p.;
b) DHA 200 mg/kg, p.o. qdx5/wx4w;
d) AZD2281+DHA (doses and schedules as above);
e) ABT-888 50 mg/kg, i.p. qdx5/wx4w;
f) ABT-888+DHA (doses and schedules as above).
DHA was administered immediately before AZD2281 or ABT-888.
The antitumour activity was evaluated according to the protocol reported hereinabove in example 3 when tumours reached a volume of about 500 mm^3.
Body weight recording was carried out to evaluate body weight loss according to the protocol reported hereinabove in example 3.

HCT116 [2] = test: Synergistic interaction with DHA, combination index (Chou-Talalay, SRB); format: cell-based; conditions: drug in combination with DHA (1.0-20 μM), DHA 2 h before, drug 72 h
Method: as §1

CAPAN-1 = test: as above; format: cell-based; conditions: drug in combination with DHA (1.0-20 μM), DHA 2 h before, drug 72 h
Method: as §1

MDA-MB436 = test: as above; format: cell-based; conditions: drug in combination with DHA (1.0-20 μM), DHA 2 h before, drug 72 h
Method: as §1

A431 = test: as above; format: cell-based; conditions: drug in combination with DHA (1.0-20 μM), DHA 2 h before, drug 72 h
Method: as §1

HCT116 [3] = test: Anti-proliferative activity, sulphorodamine B test; format: cell-based; conditions: Homo sapiens, HCT-116, 24 h exposure, 48 h recovery
Method: (§3) The biological activity of DHA and ART on tumour cells survival was evaluated. The latter were seeded in 96-well tissue culture plates at approximately 10% confluence and were allowed to attach and recover for at least 24 h before being exposed to DHA or ART for 24 h at 37° C. They were then washed to remove DHA and ART and left to recover for 48 hours in medium culture. The medium culture was then removed and cells were washed three times with PBS. The plates were then incubated for on ice for 1 hour with 200 μl of PBS and 50 μl of cold 80% TCA before being washed with distilled water, dried on paper and finally at 40° C. for 5 minutes. 200 μl of 0.4% sulphorodamine B in 1% acetic acid were added and the incubation was prolonged for 30 minutes. Sulphorodamine B was removed, and the plates were washed 3 times with 1% acetic acid. They were finally dried on paper followed by standing at 40° C. for 5 minutes. Then 200 μl Tris 10 mM were added, the plates were kept under stirring for 20 minutes. Cell survival was determined as optical density at 540 nm by means of a Multiskan spectrofluorimeter. The amount of cells killed was expressed as the percentage decrease in sulphorodamine B binding compared to control cultures. IC50 were generated with their standard deviations by the ALLFIT program.

LoVo/Dx MDR = test: Anti-proliferative activity, sulphorodamine B test; format: cell-based
Method: as §3

MCF-7/Dx MDR = test: Anti-proliferative activity, sulphorodamine B test; format: cell-based
Method: as §3

MCF-7 = test: Anti-proliferative activity, sulphorodamine B test; format: cell-based; conditions: Homo sapiens, MCF7, 24 h exposure, 48 h recovery
Method: as §3

LoVo = test: Anti-proliferative activity, sulphorodamine B test; format: cell-based; conditions: Homo sapiens, 24 h exposure, 48 h recovery
Method: as §3

[4] = tested on: NCI-H460 non-small cell lung carcinoma; test: In vivo antitumor activity, s.c. xenograft in CD1 nude mice; conditions: DHA 200 mg/kg p.o., AZD2281 100 mg/kg i.p., qdx5/wx3w
Method: NCI-H460 non-small cell lung carcinoma cells were inoculated subcutaneously (s.c.) in the right flank of CD1 nude mice (3×10^6/0.1 ml of Medium 199). Treatments started three days after tumour injection. Mice were subdivided (10 mice/group) in the following experimental groups:
as §2
b) DHA 200 mg/kg, p.o. qdx5/wx3w;
d) AZD2281+DHA (doses and schedules as above).
For the latter experiment DHA was administered immediately before AZD2281.
To evaluate the antitumour activity, tumour diameters were measured with a Vernier calliper according to the formula TV=d^2×D/2 where d and D are the shortest and longest diameters, respectively.
When tumours reached a volume of about 1500 mm^3, mice were sacrificed by cervical dislocation. The efficacy of the drug was assessed as the tumour volume inhibition according to the formula reported underneath: […]
Body weight recording was carried out to evaluate body weight loss as calculated in the equation underneath: […]
Wherein BW day x corresponds to the mean weight at day x of the experiment meanwhile BW day 1 corresponds to the mean weight at the first day of the experiment.

A2780/DDP = test: Synergistic interaction with DHA, combination index (Chou-Talalay, SRB); format: cell-based; conditions: drug in combination with DHA (1.0-20 μM), DHA 2 h before, drug 72 h
Method: (§4) Tumour cells were grown in RPMI 1640 containing 10% foetal bovine serum and treated as described in example 1 with the exception that instead of being exposed only to ART or DHA, the cell lines were treated with the drugs reported in table 2 in combination with DHA (from 1.0 μM to 20 μM, table 2). Tumour cells were treated for 2 h with DHA prior to exposure to further chemotherapeutic agents for 72 h. Cell survival was then evaluated through sulphorodamine B test. Data gathered from the various combination experiments were analyzed using Calcusyn software (Biosoft, Ferguson, Mo.) through the elaboration of isobolograms to determine if the combinations of DHA and the various chemotherapeutic agents were additive, synergistic or antagonistic. Viability assay results (SRB) were expressed as the fraction of cells killed when exposed to a single drug or to a drug combination with respect to the untreated cells. A combination index value (CI) was determined by means of the Chou-Talalay median effect method (T-C Chou, et al., Trends Pharmacol. Sci., 1983, 4, 450), wherein synergism can be defined when CI<1 and the lower the CI parameter value, the stronger the synergism (as defined by CalcuSyn 2.0 analyzer).

SW620 = test: as above; format: cell-based; conditions: drug in combination with DHA (1.0-20 μM), DHA 2 h before, drug 72 h
Method: as §4

A2780 = test: as above; format: cell-based; conditions: drug in combination with DHA (1.0-20 μM), DHA 2 h before, drug 72 h
Method: as §4

SMILES: CC[C@@]1(O)C(=O)OCc2c1cc1n(c2=O)Cc2c-1nc1ccccc1c2/C=N\OCCN [7-(2-amino)-ethoxyiminomethyl-camptothecin]
- Combination index values ED50 (NCI-H460): 0.39
- Combination index values ED75 (NCI-H460): 0.24
- Combination index values ED90 (NCI-H460): 0.16

SMILES: C[C@]1(c2nc3c(C(N)=O)cccc3[nH]2)CCCN1 [ABT-888]
- antitumor effect when given singularly [1]: None of them when given singularly did show any antitumor effect
- tolerability (body weight loss during the treatment) [1]: well-tolerated
- BWL % [1]: 0%
- TVI % [1]: 2%
- TV ± SE [1]: 395 ± 56
- Combination index values ED50 (HCT116 [2]): 0.66
- Combination index values ED75 (HCT116 [2]): 0.66
- Combination index values ED90 (HCT116 [2]): 0.66
- Combination index values ED50 (CAPAN-1): 0.59
- Combination index values ED75 (CAPAN-1): 0.32
- Combination index values ED90 (CAPAN-1): 0.22
- Combination index values ED50 (MDA-MB436): 0.42
- Combination index values ED75 (MDA-MB436): 0.43
- Combination index values ED90 (MDA-MB436): 0.47
- Combination index values ED50 (A431): 0.45
- Combination index values ED75 (A431): 0.49
- Combination index values ED90 (A431): 0.37
- Combination index values ED50 (NCI-H460): 0.78
- Combination index values ED75 (NCI-H460): 0.61
- Combination index values ED90 (NCI-H460): 0.49

- IC50 (HCT116 [3]): 257 ± 28.8 µM
- IC50 (LoVo/Dx MDR; LoVo/Dx MDR, 24 h exposure, 48 h recovery): > 200 µM
- IC50 (MCF-7/Dx MDR; MCF7/DX, MCF-7/Dx MDR, 24 h exposure, 48 h recovery): 187 ± 70 µM
- IC50 (MCF-7): 45.8 ± 11.5 µM
- IC50 (LoVo): > 200 µM
SMILES: C[C@@H]1CC[C@H]2[C@@H](C)C(=O)O[C@@H]3O[C@@]4(C)CC[C@@H]1[C@]32OO4 [ART, artemisinin]
- resistance index (MCF-7/Dx MDR; MCF-7/Dx MDR versus MCF-7): 4

SMILES: O=C(c1cc(Cc2n[nH]c(=O)c3ccccc23)ccc1F)N1CCN(C(=O)C2CC2)CC1 [AZD2281]
- antitumor effect when given singularly [1]: None of them when given singularly did show any antitumor effect
- tolerability (body weight loss during the treatment) [1]: well-tolerated
- BWL % [1]: 1%
- TVI % [1]: 18%
- TV ± SE [1]: 328 ± 52
- antitumor effect when given singularly ([4]; NCI-H460 xenograft mice): no antitumor effect
- tolerability (body weight loss during the treatment) ([4]; NCI-H460 xenograft mice): well-tolerated
- BWL % ([4]; body weight loss, NCI-H460 xenograft, CD1 nude mice): 1%
- TVI % ([4]; tumour volume inhibition, NCI-H460 xenograft, CD1 nude mice): 1%
- TV ± SE ([4]; tumour volume, NCI-H460 xenograft, CD1 nude mice, sacrifice at about 1500 mm^3): 1603 ± 171
- Combination index values ED50 (HCT116 [2]): 0.36
- Combination index values ED75 (HCT116 [2]): 0.34
- Combination index values ED90 (HCT116 [2]): 0.31
- Combination index values ED50 (CAPAN-1): 0.35
- Combination index values ED75 (CAPAN-1): 0.49
- Combination index values ED90 (CAPAN-1): 0.73
- Combination index values ED50 (MDA-MB436): 0.28
- Combination index values ED75 (MDA-MB436): 0.30
- Combination index values ED90 (MDA-MB436): 0.68
- Combination index values ED50 (A431): 0.37
- Combination index values ED75 (A431): 0.02
- Combination index values ED90 (A431): 0.02
- Combination index values ED50 (NCI-H460): 0.62
- Combination index values ED75 (NCI-H460): 0.48
- Combination index values ED90 (NCI-H460): 0.42
- Combination index values ED50 (A2780/DDP): 0.63
- Combination index values ED75 (A2780/DDP): 0.68
- Combination index values ED90 (A2780/DDP): 0.63
- Combination index values ED50 (SW620): 0.60
- Combination index values ED75 (SW620): 0.55
- Combination index values ED90 (SW620): 0.66

SMILES: N.N.O=C([O-])C1(C(=O)[O-])CCC1.[Pt+2] [Carboplatin, carboplatin]
- Combination index values ED50 (NCI-H460): 0.53
- Combination index values ED75 (NCI-H460): 0.71
- Combination index values ED90 (NCI-H460): 0.95

SMILES: N.N.[Cl][Pt][Cl] [Cisplatin, cisplatin]
- Combination index values ED50 (NCI-H460): 0.79
- Combination index values ED75 (NCI-H460): 0.88
- Combination index values ED90 (NCI-H460): 0.98

SMILES: COc1cccc2c1C(=O)c1c(O)c3c(c(O)c1C2=O)C[C@@](O)(C(=O)CO)C[C@@H]3O[C@H]1C[C@H](N)[C@H](O)[C@H](C)O1 [Doxorubicin, doxorubicin]
- resistance index (LoVo/Dx MDR; LoVo/Dx MDR versus LoVo): 63
- Combination index values ED50 (NCI-H460): 0.76
- Combination index values ED75 (NCI-H460): 0.53
- Combination index values ED90 (NCI-H460): 0.37

SMILES: NC(=O)c1cccc2cn(-c3ccc([C@@H]4CCCNC4)cc3)nc12 [MK-4827]
- Combination index values ED50 (NCI-H460): 0.83
- Combination index values ED75 (NCI-H460): 0.83
- Combination index values ED90 (NCI-H460): 0.84

SMILES: O=c1[nH]c2ccccc2c2ccccc12 [Phenanthridinone]
- Combination index values ED50 (NCI-H460): 0.19
- Combination index values ED75 (NCI-H460): 0.20
- Combination index values ED90 (NCI-H460): 0.22
- Combination index values ED50 (A2780): 0.003
- Combination index values ED75 (A2780): 0.05
- Combination index values ED90 (A2780): 0.67

SMILES: CCc1c2c(nc3ccc(O)cc13)-c1cc3c(c(=O)n1C2)COC(=O)[C@]3(O)CC [SN-38]
- Combination index values ED50 (NCI-H460): 0.81
- Combination index values ED75 (NCI-H460): 0.68
- Combination index values ED90 (NCI-H460): 0.59

— patent publication US9023861B2, “Anticancer combination of artemisinin-based drugs and other chemotherapeutic agents” (Sigma-Tau Industrie Farmaceutiche Riunite, S.p.A., priority 2009, dated 2015)
